Measured values taken from patent US20250051319A1 (AUGUSTINE THERAPEUTICS, priority 2021, published 2025).

Assays:
[1] = target: catalytic domain 2 (CD2) of HDAC6 (Homo sapiens (Human), UniProt Q9UBN7); assay: Cellular target engagement assay - NanoBRET; assay type: cell-based; conditions: NanoLuc-HDAC6(CD2) in HEK293T cells, 2 hours, read-out: IC50 (HDAC6(CD2) interaction)
[2] = target: T1, human full-length recombinant HDAC6 (Homo sapiens (Human), UniProt Q9UBN7); assay: HDAC6 enzymatic activity assay (Reaction Biology Corporation, RHKKAc fluorogenic peptide); assay type: biochemical; conditions: Reaction Biology Corporation protocol, RHKKAc fluorogenic peptide 10 μM; read-out: HDAC6 biochem
Description: (§1) Dose response testing of HDAC6 and HDAC 1 were run at Reaction Biology Corporation (RBC). Inhibition of HDAC enzymes was performed using N-terminal GST tagged human full-length recombinant HDAC6 (H88-30G, SignalChem) and C-terminal FLAG His tag human full-length recombinant HDAC1 produced in insect cells (KDA-21-365, RBC). Enzyme reactions were run in 50 mM Tris-HCl, pH8.0, 137 mM NaCl, 2.7 mM KCl, and 1 mM MgCl2 with 1 mg/ml BSA, 1% DMSO freshly added. 2× enzyme was delivered in the wells of the reaction plate except for the “no enzyme” control wells. In the latter, buffer was added. Compounds in 100% DMSO were delved into the enzyme mixture by acoustic technology (Echo550). Plates are spun down and compounds were incubation with the enzyme for 10 min at room temperature. 2× Fluorogenic peptide from p53 residues 379-382 (RHKKAc, 10 μM final concentration) was added in all wells to initiate the reaction, followed by 1 h incubation at 30° C. Developer containing Trichostatin A was added to stop the reaction and generate fluorescent color. A kinetic measurement was carried out for 20 min with 5 min interval on the Envision plate reader (Perkin Elmer, Ex/Em=360/460). End point reading i.e., plateau of the development reaction was used for analysis. Data was reported by RBC as percentage enzyme activity. Percentage inhibition was calculated by subtracting percentage enzyme activity from 100. IC50 values were calculated using GraphPad Prism 9 based on the log(inhibitor) vs. response—Variable slope (four parameters) equation.

[3] = target: T2, human full-length recombinant HDAC1 (Homo sapiens (Human), UniProt Q13547); assay: HDAC1 enzymatic activity assay (Reaction Biology Corporation, RHKKAc fluorogenic peptide); assay type: biochemical; conditions: Reaction Biology Corporation protocol, RHKKAc fluorogenic peptide 10 μM; read-out: HDAC1 biochem
Description: as §1

[4] = target: T1, human full-length recombinant HDAC6; assay: HDAC6 enzymatic activity assay (alternative protocol, Ac-Gly-Ala-Lys(Ac)-AMC); assay type: biochemical; conditions: 5 nM enzyme, read-out: HDAC6 biochem
Outline: (§2)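 Sf9-expressed enzymes (4 nM HDAC1, 5 nM HDAC6) preincubated 10 min at RT with compound, then 60 min with Ac-Gly-Ala-Lys(Ac)-AMC ([…] HDAC1, 40 µM HDAC6); pH 8.0 Tris buffers, HDAC6 buffer with EDTA and DTT. Trypsin/SAHA developer stop, fluorescence 360/450 nm after 15 min; normalized to DMSO (100%) and 10 μM SAHA (0%).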

[5] = target: T2, human full-length recombinant HDAC1; assay: HDAC1 enzymatic activity assay (alternative protocol, Ac-Gly-Ala-Lys(Ac)-AMC); assay type: biochemical; conditions: 4 nM enzyme, read-out: HDAC1 biochem
Outline: as §2

T2 sequence (Q13547 whole entry): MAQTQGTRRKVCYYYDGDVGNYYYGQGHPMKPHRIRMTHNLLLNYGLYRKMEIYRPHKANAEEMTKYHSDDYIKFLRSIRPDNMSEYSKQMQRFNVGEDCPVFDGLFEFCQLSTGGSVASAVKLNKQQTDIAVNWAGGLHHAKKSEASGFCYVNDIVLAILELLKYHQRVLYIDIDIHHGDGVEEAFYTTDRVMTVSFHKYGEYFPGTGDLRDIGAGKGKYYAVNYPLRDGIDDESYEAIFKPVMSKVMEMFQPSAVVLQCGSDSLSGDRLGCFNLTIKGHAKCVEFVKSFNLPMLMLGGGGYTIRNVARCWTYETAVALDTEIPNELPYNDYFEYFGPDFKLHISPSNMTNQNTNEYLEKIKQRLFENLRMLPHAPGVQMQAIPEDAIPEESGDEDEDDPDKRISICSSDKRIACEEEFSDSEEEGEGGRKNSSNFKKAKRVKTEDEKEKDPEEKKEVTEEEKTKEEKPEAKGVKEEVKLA
T1 sequence (Q9UBN7 whole entry): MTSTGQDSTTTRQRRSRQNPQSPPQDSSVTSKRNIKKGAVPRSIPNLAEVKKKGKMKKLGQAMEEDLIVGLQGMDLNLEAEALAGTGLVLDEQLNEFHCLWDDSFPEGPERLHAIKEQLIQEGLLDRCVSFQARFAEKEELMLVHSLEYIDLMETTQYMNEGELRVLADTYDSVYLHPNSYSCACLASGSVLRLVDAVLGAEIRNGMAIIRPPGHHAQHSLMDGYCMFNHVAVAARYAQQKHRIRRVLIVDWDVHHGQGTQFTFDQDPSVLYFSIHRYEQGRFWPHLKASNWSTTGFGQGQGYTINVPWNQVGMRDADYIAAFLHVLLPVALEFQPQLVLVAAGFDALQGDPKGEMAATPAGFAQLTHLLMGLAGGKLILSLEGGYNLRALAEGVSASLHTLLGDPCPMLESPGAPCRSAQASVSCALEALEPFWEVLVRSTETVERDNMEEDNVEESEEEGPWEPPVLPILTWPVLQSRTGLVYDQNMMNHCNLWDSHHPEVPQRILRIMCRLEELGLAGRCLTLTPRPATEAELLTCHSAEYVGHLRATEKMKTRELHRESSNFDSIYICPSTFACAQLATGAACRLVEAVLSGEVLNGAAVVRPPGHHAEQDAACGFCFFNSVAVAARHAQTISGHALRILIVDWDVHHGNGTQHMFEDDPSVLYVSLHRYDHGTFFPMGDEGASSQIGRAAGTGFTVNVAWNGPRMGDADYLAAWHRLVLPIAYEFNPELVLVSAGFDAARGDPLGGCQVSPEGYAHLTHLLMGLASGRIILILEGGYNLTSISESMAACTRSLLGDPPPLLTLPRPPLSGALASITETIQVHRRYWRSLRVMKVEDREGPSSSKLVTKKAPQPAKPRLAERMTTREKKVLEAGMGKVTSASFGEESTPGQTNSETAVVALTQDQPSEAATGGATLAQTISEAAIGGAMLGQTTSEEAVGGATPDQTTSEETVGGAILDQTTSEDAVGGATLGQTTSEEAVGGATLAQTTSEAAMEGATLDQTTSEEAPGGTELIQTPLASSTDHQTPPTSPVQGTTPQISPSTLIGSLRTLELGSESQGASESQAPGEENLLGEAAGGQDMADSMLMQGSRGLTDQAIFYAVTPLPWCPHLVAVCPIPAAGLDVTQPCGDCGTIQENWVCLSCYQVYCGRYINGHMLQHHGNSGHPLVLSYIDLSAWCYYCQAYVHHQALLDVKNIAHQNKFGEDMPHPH
Sequence of catalytic domain 2 (CD2) of HDAC6 (Q9UBN7 482-800): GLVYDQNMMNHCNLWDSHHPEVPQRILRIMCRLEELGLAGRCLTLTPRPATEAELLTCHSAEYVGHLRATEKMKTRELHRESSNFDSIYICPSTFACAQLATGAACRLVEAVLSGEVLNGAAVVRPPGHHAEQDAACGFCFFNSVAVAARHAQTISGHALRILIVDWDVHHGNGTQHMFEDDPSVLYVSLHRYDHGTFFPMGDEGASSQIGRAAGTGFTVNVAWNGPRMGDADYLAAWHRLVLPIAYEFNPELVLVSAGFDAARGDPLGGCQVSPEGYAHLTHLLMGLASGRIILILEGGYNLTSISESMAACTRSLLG

Row | SMILES | IC50 [1] [nM] | IC50 [2] [nM] | IC50 [3] [nM] | IC50 [4] [nM] | IC50 [5] [nM]
1 | Cn1ncc2c(SCC(=O)c3ccc(CNC(=O)C4CC4)s3)ncnc21 [Example 31, N-((5-(2-((1-methyl-1H-pyrazolo[3,4-d]pyrimidin-4-yl)thio)acetyl)thiophen-2-yl)methyl)cyclopropanecarboxamide] | 1000 to 10000 | ≤ 100 | > 10000 | ≤ 100 | > 10000
2 | O=C(CSc1nc(C(F)(F)F)nc2nn(C3CC3)cc12)c1ccc(CNC(=O)C(F)(F)C(F)(F)F)s1 [Example 44, N-((5-(2-((2-cyclopropyl-6-(trifluoromethyl)-2H-pyrazolo[3,4-d]pyrimidin-4-yl)thio)acetyl)thiophen-2-yl)methyl)-2,2,3,3,3-pentafluoropropanamide] | 100 to 500 | ≤ 100 | > 10000 | – | –
3 | COc1ccc2nc(C)nc(SCC(=O)c3ccc(CNC(=O)CO)s3)c2c1 [Example 60, 2-Hydroxy-N-((5-(2-((6-methoxy-2-methylquinazolin-4-yl)thio)acetyl)thiophen-2-yl)methyl)acetamide] | ≤ 100 | ≤ 100 | > 10000 | – | –
4 | O=C(CSc1nc(C(F)(F)F)nc2ncccc12)c1ccc(CN2CCOCC2=O)s1 [Example 138, 4-((5-(2-((2-(trifluoromethyl)pyrido[2,3-d]pyrimidin-4-yl)thio)acetyl)thiophen-2-yl)methyl)morpholin-3-one] | ≤ 100 | ≤ 100 | > 10000 | – | –
